The target in one test is Histone deacetylase 4 (Homo sapiens, UniProt P56524). Nature of the test: Inhibition of HDAC4 (unknown origin) after 60 mins by fluorescence assay.
For the next test, the target named is T1, Histone deacetylase 8 (Homo sapiens, UniProt Q9BY41).
T1 sequence (Q9BY41 whole entry): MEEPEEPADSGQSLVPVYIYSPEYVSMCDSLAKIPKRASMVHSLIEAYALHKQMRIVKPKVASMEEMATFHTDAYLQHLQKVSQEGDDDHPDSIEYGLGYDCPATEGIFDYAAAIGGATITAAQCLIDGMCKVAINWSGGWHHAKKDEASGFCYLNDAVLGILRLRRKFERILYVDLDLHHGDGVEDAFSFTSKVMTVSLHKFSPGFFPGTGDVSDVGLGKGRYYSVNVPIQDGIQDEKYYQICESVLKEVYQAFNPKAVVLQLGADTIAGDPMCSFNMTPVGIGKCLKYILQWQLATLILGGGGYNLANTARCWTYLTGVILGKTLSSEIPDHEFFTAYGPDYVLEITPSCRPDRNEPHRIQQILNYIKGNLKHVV
Nature of the test: Inhibition of HDAC8 (unknown origin) after 60 mins by fluorescence assay.

The target in test [1] is T2, Histone deacetylase 2 (Homo sapiens, UniProt Q92769). Nature of the test: Inhibition of HDAC2 (unknown origin) after 60 mins by fluorescence assay.
Test [2] has as its target T3, Protein deacetylase HDAC6 (Homo sapiens, UniProt Q9UBN7).
T3 sequence (Q9UBN7 whole entry): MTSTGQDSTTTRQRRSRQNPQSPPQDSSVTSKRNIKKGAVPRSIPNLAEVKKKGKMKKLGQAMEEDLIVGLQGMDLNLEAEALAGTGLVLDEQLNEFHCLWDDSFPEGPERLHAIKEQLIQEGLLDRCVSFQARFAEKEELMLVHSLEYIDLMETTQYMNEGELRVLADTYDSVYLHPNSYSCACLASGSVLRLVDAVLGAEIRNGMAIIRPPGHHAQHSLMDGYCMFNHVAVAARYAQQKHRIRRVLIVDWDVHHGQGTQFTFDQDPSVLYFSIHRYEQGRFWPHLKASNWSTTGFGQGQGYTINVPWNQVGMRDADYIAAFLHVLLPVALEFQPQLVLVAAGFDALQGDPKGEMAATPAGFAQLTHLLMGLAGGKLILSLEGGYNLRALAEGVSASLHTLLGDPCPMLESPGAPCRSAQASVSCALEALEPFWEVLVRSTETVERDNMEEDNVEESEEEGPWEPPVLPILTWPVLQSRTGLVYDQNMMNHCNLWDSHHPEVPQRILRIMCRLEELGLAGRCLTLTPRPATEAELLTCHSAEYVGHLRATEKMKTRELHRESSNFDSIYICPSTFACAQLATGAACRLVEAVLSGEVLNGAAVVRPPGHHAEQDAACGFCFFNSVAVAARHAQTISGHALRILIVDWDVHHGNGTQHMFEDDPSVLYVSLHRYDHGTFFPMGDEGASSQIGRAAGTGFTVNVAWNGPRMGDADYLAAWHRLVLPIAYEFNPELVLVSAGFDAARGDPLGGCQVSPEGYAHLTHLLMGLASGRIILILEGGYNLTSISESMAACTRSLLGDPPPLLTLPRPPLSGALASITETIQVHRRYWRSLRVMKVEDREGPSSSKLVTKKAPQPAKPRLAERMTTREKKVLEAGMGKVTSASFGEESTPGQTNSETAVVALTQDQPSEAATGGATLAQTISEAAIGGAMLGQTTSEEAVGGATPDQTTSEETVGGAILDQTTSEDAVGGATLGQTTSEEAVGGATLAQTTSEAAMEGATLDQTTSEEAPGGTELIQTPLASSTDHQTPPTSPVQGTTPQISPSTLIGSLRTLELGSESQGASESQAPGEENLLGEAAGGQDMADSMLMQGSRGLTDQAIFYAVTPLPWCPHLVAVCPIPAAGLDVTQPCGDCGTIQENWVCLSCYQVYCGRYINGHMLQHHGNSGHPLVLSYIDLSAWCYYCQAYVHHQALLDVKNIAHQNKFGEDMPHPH
In words: Inhibition of HDAC6 (unknown origin) after 60 mins by fluorescence assay.

The species entered for test [3] is Homo sapiens. In words: Selectivity ratio of IC50 for HDAC4 (unknown origin) to IC50 for HDAC8 (unknown origin).
Test [4] is filed under the species Homo sapiens. In words: Selectivity ratio of IC50 for HDAC4 (unknown origin) to IC50 for HDAC6 (unknown origin).
The species named for test [5] is Homo sapiens. In words: Selectivity ratio of IC50 for HDAC2 (unknown origin) to IC50 for HDAC8 (unknown origin).
For test [6], the species on record is Homo sapiens. Nature of the test: Selectivity ratio of IC50 for HDAC2 (unknown origin) to IC50 for HDAC6 (unknown origin).
The target in a further test is Histone deacetylase 5 (Homo sapiens, UniProt Q9UQL6). Nature of the test: Inhibition of HDAC5 (unknown origin) after 60 mins by fluorescence assay.
A further test concerns the target Histone deacetylase 9 (Homo sapiens, UniProt Q9UKV0). Nature of the test: Inhibition of HDAC9 (unknown origin) after 60 mins by fluorescence assay.
A further test concerns the target Histone deacetylase 1 (Homo sapiens, UniProt Q13547). Nature of the test: Inhibition of HDAC1 (unknown origin) after 60 mins by fluorescence assay.
The target of a further test is Histone deacetylase 3 (Homo sapiens, UniProt O15379). Nature of the test: Inhibition of HDAC3 (unknown origin) after 60 mins by fluorescence assay.
Test [7] addresses T2, Histone deacetylase 2. The settings on record: HeLa, at 10 µM.
Description: Inhibition of HDAC2 in human HeLa cells assessed as increase in histone H3 acetylation at 10 uM after 48 hrs by Western blotting analysis
Another test concerns the target T4, Histone deacetylase 7 (Homo sapiens, UniProt Q8WUI4).
T4 sequence (Q8WUI4 whole entry): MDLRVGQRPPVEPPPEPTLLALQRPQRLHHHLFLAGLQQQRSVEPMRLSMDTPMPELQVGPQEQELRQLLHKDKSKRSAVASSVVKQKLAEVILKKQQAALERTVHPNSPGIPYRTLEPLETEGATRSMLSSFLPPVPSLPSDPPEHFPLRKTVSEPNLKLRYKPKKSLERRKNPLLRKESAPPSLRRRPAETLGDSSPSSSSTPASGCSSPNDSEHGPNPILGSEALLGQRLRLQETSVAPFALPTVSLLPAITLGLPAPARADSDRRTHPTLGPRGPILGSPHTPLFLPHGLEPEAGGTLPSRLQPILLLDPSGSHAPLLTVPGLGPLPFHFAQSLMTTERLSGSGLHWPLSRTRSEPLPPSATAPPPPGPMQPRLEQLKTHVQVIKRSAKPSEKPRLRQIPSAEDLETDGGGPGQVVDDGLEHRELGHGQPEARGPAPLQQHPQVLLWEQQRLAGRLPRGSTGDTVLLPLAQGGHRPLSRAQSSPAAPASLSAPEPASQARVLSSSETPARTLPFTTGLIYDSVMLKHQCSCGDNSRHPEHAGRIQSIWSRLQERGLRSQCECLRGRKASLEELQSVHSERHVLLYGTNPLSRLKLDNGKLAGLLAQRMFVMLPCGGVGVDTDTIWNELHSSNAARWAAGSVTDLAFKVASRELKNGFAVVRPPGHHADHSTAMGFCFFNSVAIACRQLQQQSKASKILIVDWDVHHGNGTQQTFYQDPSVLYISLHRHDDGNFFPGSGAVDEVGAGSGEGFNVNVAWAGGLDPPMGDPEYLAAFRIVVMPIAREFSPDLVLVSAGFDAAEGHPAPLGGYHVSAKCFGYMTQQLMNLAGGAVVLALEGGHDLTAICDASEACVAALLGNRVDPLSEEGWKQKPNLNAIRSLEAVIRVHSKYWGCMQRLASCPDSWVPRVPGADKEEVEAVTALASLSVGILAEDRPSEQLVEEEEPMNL
In words: Inhibition of HDAC7 (unknown origin) after 60 mins by fluorescence assay.

Activity calls are given as the source filed them. No cut-off for these calls is given here. Some results are limits rather than exact numbers.

Chain of Histone deacetylase 4 (P56524 whole entry): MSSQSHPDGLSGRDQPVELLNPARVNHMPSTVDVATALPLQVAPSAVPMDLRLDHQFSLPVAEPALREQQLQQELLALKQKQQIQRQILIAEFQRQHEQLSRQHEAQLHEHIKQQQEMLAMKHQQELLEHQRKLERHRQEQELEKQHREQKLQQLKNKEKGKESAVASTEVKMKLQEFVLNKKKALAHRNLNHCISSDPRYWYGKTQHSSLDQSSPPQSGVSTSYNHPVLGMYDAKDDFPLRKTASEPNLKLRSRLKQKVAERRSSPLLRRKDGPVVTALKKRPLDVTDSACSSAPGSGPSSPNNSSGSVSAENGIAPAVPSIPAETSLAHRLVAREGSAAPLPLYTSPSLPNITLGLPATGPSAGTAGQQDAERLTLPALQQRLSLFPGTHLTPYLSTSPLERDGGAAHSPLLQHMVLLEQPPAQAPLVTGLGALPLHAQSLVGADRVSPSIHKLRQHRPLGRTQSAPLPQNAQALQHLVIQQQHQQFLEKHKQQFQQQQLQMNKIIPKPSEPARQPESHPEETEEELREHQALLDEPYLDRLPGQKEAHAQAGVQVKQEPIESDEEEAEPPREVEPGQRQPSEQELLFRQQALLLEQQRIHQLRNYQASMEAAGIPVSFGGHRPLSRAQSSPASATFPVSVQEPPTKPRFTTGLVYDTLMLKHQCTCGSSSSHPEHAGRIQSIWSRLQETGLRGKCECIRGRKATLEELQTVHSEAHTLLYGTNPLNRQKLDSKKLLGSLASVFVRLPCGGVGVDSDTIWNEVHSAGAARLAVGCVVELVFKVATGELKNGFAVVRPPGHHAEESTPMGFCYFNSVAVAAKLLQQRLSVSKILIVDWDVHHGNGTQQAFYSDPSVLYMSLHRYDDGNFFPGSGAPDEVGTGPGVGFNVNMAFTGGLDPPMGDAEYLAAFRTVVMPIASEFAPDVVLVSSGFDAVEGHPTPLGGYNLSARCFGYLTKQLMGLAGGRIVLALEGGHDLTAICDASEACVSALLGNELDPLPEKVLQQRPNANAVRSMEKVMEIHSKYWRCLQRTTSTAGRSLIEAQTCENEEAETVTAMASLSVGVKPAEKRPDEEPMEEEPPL
T2 sequence (Q92769 whole entry): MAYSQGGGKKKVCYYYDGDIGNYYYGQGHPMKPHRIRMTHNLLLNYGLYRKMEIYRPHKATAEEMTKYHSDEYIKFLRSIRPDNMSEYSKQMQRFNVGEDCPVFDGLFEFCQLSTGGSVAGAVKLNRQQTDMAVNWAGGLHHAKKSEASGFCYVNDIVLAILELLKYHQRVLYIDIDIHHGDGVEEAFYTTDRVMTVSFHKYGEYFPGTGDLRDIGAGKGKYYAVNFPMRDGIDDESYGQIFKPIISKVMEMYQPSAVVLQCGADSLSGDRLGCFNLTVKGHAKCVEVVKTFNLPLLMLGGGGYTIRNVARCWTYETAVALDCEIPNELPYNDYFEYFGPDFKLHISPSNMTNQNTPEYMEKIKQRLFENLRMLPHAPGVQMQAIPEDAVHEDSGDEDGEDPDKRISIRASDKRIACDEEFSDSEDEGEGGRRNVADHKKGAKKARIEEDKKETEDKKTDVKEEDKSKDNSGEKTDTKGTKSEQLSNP
Chain of Histone deacetylase 5 (Q9UQL6 whole entry): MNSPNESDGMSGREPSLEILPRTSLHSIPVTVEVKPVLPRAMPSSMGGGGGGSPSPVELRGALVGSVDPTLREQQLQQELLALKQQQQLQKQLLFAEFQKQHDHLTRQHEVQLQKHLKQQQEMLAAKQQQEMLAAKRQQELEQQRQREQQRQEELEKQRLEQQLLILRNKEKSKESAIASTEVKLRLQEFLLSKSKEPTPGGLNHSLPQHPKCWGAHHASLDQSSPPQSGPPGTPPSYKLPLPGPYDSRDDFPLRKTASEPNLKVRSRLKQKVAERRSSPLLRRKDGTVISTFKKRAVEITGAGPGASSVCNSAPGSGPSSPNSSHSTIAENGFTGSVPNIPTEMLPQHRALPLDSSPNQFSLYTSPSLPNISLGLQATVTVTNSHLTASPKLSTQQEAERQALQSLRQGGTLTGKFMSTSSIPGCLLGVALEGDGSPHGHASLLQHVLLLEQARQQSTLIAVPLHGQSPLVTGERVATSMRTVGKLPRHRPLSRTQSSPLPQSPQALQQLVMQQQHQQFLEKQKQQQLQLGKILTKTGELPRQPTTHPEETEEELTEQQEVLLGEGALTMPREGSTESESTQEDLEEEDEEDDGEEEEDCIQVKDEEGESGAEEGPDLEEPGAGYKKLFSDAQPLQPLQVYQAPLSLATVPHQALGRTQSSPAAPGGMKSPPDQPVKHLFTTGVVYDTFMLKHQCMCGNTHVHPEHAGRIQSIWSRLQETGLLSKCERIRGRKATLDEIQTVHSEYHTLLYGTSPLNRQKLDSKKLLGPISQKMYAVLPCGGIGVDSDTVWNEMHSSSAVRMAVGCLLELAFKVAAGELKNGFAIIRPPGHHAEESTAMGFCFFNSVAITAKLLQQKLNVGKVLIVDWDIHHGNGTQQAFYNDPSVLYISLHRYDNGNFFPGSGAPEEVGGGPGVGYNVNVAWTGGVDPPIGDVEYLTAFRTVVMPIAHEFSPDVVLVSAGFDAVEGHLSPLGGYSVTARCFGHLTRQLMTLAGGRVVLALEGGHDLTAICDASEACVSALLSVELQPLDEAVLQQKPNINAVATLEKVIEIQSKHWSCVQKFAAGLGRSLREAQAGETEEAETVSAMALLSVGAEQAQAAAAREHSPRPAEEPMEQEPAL
Chain of Histone deacetylase 9 (Q9UKV0 whole entry): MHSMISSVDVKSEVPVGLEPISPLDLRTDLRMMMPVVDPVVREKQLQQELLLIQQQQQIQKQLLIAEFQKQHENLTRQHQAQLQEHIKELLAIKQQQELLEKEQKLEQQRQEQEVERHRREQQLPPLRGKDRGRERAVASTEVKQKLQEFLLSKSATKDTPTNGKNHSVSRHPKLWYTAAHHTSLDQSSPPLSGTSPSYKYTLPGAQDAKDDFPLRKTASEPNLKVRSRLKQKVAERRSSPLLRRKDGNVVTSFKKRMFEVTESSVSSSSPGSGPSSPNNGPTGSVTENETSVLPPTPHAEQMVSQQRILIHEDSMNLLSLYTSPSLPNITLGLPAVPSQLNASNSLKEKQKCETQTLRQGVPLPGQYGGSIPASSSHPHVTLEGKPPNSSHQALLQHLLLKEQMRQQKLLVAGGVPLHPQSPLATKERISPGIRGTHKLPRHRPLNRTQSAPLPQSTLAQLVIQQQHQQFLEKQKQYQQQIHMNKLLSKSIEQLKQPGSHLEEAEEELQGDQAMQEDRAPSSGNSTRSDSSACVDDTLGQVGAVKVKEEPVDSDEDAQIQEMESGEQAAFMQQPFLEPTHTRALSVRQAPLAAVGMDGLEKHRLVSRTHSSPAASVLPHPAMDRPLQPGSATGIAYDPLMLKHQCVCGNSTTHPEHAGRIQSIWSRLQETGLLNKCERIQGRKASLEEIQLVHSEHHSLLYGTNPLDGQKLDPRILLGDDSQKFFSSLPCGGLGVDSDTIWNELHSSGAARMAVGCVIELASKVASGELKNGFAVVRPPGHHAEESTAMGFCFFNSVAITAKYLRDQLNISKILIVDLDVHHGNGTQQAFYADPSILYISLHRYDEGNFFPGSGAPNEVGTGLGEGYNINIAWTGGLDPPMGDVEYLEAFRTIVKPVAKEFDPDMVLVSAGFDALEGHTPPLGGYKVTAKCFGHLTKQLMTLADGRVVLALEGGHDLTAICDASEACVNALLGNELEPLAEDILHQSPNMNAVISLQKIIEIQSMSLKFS
Chain of Histone deacetylase 3 (O15379 whole entry): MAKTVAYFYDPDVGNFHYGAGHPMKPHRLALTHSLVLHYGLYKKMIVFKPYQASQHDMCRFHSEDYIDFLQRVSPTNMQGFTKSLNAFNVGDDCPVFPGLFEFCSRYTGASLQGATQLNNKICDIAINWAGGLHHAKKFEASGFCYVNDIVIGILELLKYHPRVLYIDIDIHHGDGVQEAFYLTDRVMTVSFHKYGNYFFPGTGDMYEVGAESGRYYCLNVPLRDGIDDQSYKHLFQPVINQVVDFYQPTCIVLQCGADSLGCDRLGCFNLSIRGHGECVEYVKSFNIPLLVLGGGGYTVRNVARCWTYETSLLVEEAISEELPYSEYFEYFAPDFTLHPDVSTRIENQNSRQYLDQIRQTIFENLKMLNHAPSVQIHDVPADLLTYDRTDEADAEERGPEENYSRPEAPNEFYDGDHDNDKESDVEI
Chain of Histone deacetylase 1 (Q13547 whole entry): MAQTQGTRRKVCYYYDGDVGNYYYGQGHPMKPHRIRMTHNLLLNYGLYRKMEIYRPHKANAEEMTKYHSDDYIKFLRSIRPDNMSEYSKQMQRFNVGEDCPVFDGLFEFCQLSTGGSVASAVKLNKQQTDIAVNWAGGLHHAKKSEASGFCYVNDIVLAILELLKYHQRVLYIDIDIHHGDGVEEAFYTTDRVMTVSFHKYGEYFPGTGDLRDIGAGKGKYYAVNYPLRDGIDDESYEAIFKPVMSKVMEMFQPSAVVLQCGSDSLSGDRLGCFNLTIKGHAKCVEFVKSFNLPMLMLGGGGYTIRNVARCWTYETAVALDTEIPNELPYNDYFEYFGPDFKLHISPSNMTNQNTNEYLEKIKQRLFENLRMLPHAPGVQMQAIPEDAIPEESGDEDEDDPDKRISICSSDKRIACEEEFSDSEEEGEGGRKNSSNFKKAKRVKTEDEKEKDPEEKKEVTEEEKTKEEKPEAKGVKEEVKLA

For `O=C(NO)c1cccc(C(=O)NCCc2cccnc2)c1`, the IC50 against Histone deacetylase 4 was over 33 µM; on Histone deacetylase 8, 0.42 µM; on Histone deacetylase 2 [1], 20 µM; in test [2] it was 0.059 µM.

Regarding `O=C(NO)c1cccc(CNc2ccccc2)c1`, the IC50 at Histone deacetylase 4 is over 33 µM; on Histone deacetylase 8, 1.7 µM; against Histone deacetylase 2 [1] it was over 33 µM; in [2], 1.3 µM.

For the molecule `CNC(=O)c1cccc(C(=O)NO)c1`, the IC50 is over 33 µM on Histone deacetylase 4, 14 µM on Histone deacetylase 8, over 33 µM against Histone deacetylase 2 [1] and 2.5 µM in [2].

As to `O=C(NO)c1cccc(C(=O)NCc2ccccc2)c1`, the half-inhibitory concentration (IC50) against Histone deacetylase 4 was over 33 µM; against Histone deacetylase 8 it was 0.21 µM; against Histone deacetylase 2 [1] it was 11 µM; in test [2], 0.034 µM. The Ratio IC50 in the test filed under Homo sapiens [3], in the test listed under Homo sapiens [4], in the test listed under Homo sapiens [5] and in the test listed under Homo sapiens [6] was over 50 throughout.

`Cc1cccc(C(=O)NO)c1`: the half-inhibitory concentration (IC50) on Histone deacetylase 4 is over 33 µM; against Histone deacetylase 8 it was 3.3 µM; against Histone deacetylase 2 [1], over 33 µM; in [2], 0.65 µM.

With `O=C(NO)c1cccc(C(=O)NCCc2ccccc2)c1`, the concentration for half-maximal inhibition (IC50) against Histone deacetylase 5 was over 33 µM; at Histone deacetylase 9 it was over 33 µM; against Histone deacetylase 1 it was 12 µM; against Histone deacetylase 3, 23 µM; against Histone deacetylase 2 [1], 9 µM. The inhibition entry at Histone deacetylase 2 [7] is “Active”.

As to `O=C(NO)c1cccc(C(=O)Nc2ccccc2)c1`, the IC50 against Histone deacetylase 4 is over 33 µM.

In the case of `O=C(/C=C/c1cccc(C(=O)NO)c1)Nc1ccccc1`, the IC50 is 26 µM on Histone deacetylase 5; 12 µM against Histone deacetylase 9; 14 µM against Histone deacetylase 4; 8.4 µM against Histone deacetylase 7; 6.1 µM against Histone deacetylase 1; 0.037 µM on Histone deacetylase 8. Further, the half-maximal inhibitory concentration (IC50) against Histone deacetylase 3 was 18 µM; against Histone deacetylase 2 [1] it was 4.8 µM; in [2] it was 0.021 µM. Also, the Ratio IC50 in the test filed under Homo sapiens [3], in the test filed under Homo sapiens [4], in the test listed under Homo sapiens [5] and in the test listed under Homo sapiens [6] was over 130 each time. Moreover, the inhibition entry on Histone deacetylase 2 [7] is “Active”.
